In patent US20070286896A1, “Therapeutic or Diagnostic Drug for Inflammatory Disease Comprising Targeting Liposome” (NATIONAL INSTITUTE OF ADVANCED INDUSTRIAL SCIENCE AND …, priority 2003, published 2007):

Tests used:
Assay type in all cases: in vivo, DBA/1J mice
[1] = test system: Collagen type II induced arthritis (CIA) mice; assay: Medical treatment of RA mice by intravenous administration of DDS liposomes
Protocol: (§1) A water solution of the collagen and the CFA were mixed at a volume ratio of 2:1 to prepare an emulsion containing 200 μg of the collagen per 100 μL thereof. This emulsion was subcutaneously injected into the bottom of the tails of the mice (Day 0). After 21 days from the administration (Day 21), a water solution of the collagen and the IFA were mixed at a volume ratio of 2:1 to prepare an emulsion containing 200 μg of the collagen per 100 μL thereof, and this emulsion was subcutaneously injected again into the bottom of the tails of the mice.
(§2) After the injection, the limbs of the mice were observed on a three times/week basis, and inflammation was quantitatively determined by giving it a point according to the following criteria: for each limb, normal: 0 point, mild inflammation or redness: 1 point, severe redness, dilatation, or reduced use: 2 points, and deformed palm, plantar region, or joint region: 3 points (0 point lowest, 12 points highest, per mouse). Inflammatory activity (hereinafter, referred to as IA) was determined by applying the obtained point to the following formula: Inflammatory activity (%)=points of all limbs/12×100.
Mice with arthritis received medical treatment by injecting a therapeutic drug to the tail veins thereof. The intravenous injection was performed on a twice/week basis for a period from Day 28 to Day 46. […]

[2] = test system: Collagen type II induced arthritis (CIA) mice; assay: Medical treatment of RA mice by oral administration of DDS liposomes; details: oral three times/week Day 28 to Day 39; free Pred 100 μg, L-Pred 10 μg per administration
Protocol: as §1, §2
Mice with arthritis received medical treatment by orally administering a therapeutic drug to the mice. The oral administration was performed on a three times/week basis for a period from Day 28 to Day 39. […]

[3] = test system: Collagen type II induced arthritis (CIA) mice; assay: Test for determining proper amount of prednisolone phosphate for RA mice; details: Day 28 to Day 46

Question: `C[C@]12C=CC(=O)C=C1CC[C@@H]1[C@@H]2[C@@H](O)C[C@@]2(C)[C@H]1CC[C@]2(O)C(=O)COP(=O)(O)O` [prednisolone phosphate] was tested. Which “Inflammatory activity (IA)” value ([1]; intravenous 100 μg/injection (200 μg/week) prednisolone phosphate, Day 37) did it give?
Answer: Its value is “approximately 50%”.

Question: And the “IA compared with other groups / progression of inflammation” value ([1]; intravenous twice/week Day 28 to Day 46, free Pred 100 μg/injection, liposomes 10 μg/injection)?
Answer: Its value is “no evident difference was observed between the IA of the free Pred group and the IA of the Control group”.

Question: What about the “difference in IA among the control, free Pred (until Day 32) and L-Pred groups” value [2] of the same molecule?
Answer: Its value is “no significant difference”.

Question: And the “IA compared with control group” value ([3]; intravenous 250 μg/injection (500 μg/week))?
Answer: Its value is “No significant difference”.

Question: What about the “rise in IA / progression of the inflammation” value ([3]; intravenous 500 μg/injection (1000 μg/week)) of the same molecule?
Answer: The value was “a rise in IA was not observed, and the progression of the inflammation was suppressed”.
